Earlier results, collected in US20110160253A1, “DEUTERATED TIZANIDINE” (priority 2008, published 2011).

Key:
[1] = patients treated with tizanidine; appears to be dose related
[2] = primary cytochrome P450 isoenzyme involved being CYP1A2

administered dose that is metabolized [2]: Approximately 95%
Compound: Clc1ccc2nsnc2c1NC1=NCCN1 [Tizanidine, 5-chloro-4-(2-imidazolin-2-ylamino)-2,1,3-benzothiodiazole]
patients who report sedation [1]: 48%
